Target: T1, human GPR119 (Homo sapiens, UniProt Q8TDV5)
T1 construct: expressed in transfected cells
T1 sequence (Q8TDV5 1-335): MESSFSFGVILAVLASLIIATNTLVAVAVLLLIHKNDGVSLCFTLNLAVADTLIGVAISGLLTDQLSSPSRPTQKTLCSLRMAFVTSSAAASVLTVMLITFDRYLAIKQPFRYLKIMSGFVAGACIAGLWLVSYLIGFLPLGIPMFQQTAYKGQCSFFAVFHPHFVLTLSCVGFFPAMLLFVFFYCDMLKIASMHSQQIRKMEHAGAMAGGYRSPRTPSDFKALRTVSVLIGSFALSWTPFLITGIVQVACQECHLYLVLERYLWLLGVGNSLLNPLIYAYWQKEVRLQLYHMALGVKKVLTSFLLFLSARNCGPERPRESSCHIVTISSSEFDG
Assay: Functional cellular assay measuring GPR119-mediated cAMP release (HTRF)
Type: cell-based
Conditions: HEK-293 cell line stably expressing recombinant human GPR119; cAMP response, 30 minutes at room temperature
Procedure: Functional Cellular Assays Measuring GPR119-Mediated cAMP Release
Compounds of the invention, which are agonists of GPR119, were characterized by functional assays measuring the cAMP response of HEK-293 cell lines stably expressing recombinant GPR119 from man, mouse or rat, or by using a hamster cell line HIT-T15 expressing GPR119 endogenously. The cAMP content was determined using a kit based on homogenous time-resolved fluorescence (HTRF) from Cisbio Corp. (cat. no. 62AM4PEC). For preparation, cells were split into T175 culture flasks and grown to near confluency in medium (DMEM/10% FCS for HEK-293 cells, and F-12K medium/10% horse serum/2.5% FCS for HIT-T15 cells, respectively). Medium was then removed and cells washed with PBS lacking calcium and magnesium ions, followed by proteinase treatment with accutase (Sigma-Aldrich, cat. no. A6964). Detached cells were washed and resuspended in assay buffer (1×HBSS; 20 mM HEPES, 0.1% BSA, 2 mM IBMX) and cellular density determined. They were then diluted to 400000 cells/mL and 25 μL-aliquots dispensed to the wells of 96-well plates. For measurement, 25 μL of test compound in assay buffer was added and incubated for 30 minutes at room temperature. After addition of HTRF reagents diluted in lysis buffer, the plates were incubated for 1 hour, followed by measuring the fluorescence ratio at 665 vs. 620 nm. Potency of the agonists was quantified by determining the concentrations that caused 50% of the maximal response/activation (EC50). See Table 4 for exemplary data obtained using the cell line expressing human GPR119.

Row | SMILES | EC50 [nM]
1 | CN(C)C(=O)CC1CC(=O)c2cc(N3CC[C@@H](Oc4ccc(OCC5CC5)nc4)C3=O)cc(F)c21 (stereo partly drawn) [Example 3-11, 2-[5-[(3R)-3-[[6-(cyclopropylmethoxy)-3-pyridyl]oxy]-2-oxo-pyrrolidin-1-yl]-7-fluoro-3-oxo-indan-1-yl]-N,N-dimethyl-acetamide] | 59
2 | O=C(O)CC1Cc2c(F)cc(N3CC[C@@H](Oc4ccc(OCC5CC5)nc4)C3=O)cc2C1=O (stereo partly drawn) [Example 2-01, {6-[(R)-3-(6-cyclopropylmethoxy-pyridin-3-yloxy)-2-oxo-pyrrolidin-1-yl]-4-fluoro-1-oxo-indan-2-yl}-acetic acid] | 360
3 | O=C1CC(CO)c2ccc(N3CC[C@@H](Oc4ccc(OCC5CC5)nc4)C3=O)cc21 (stereo partly drawn) [Example 1-18, (3R)-3-[[6-(cyclopropylmethoxy)-3-pyridyl]oxy]-1-[1-(hydroxymethyl)-3-oxo-indan-5-yl]pyrrolidin-2-one] | 198
4 | O=C1CC(CCO)c2ccc(N3CC[C@@H](Oc4ccc(Oc5ccc(F)cc5)nc4)C3=O)cc21 (stereo partly drawn) [Example 1-01, (3R)-3-[[6-(4-Fluorophenoxy)-3-pyridyl]oxy]-1-[1-(2-hydroxyethyl)-3-oxo-indan-5-yl]pyrrolidin-2-one] | 311
5 | COC(=O)C[C@@H]1CC(=O)c2cc(N3CC[C@@H](Oc4ccc(OCC5CC5)nc4)C3=O)ccc21 [Example 1-14, methyl 2-[(1S)-5-[(3R)-3-[[6-(cyclopropylmethoxy)-3-pyridyl]oxy]-2-oxo-pyrrolidin-1-yl]-3-oxo-indan-1-yl]acetate] | 19
6 | COC(=O)CC1Cc2ccc(N3CCC(Oc4ccc(OCCC(C)C)cc4)C3=O)cc2C1=O (stereo not shown) [Example 1-02, methyl 2-[6-[3-(4-isopentyloxyphenoxy)-2-oxo-pyrrolidin-1-yl]-1-oxo-indan-2-yl]acetate] | 262
7 | NC(=O)CC1Cc2c(F)cc(N3CC[C@@H](Oc4ccc(OCC5CC5)nc4)C3=O)cc2C1=O (stereo partly drawn) [Example 3-05, 2-[6-[(3R)-3-[[6-(cyclopropylmethoxy)-3-pyridyl]oxy]-2-oxo-pyrrolidin-1-yl]-4-fluoro-1-oxo-indan-2-yl]acetamide] | 78

Source: patent US9896434B2, “Substituted indanone compounds as GPR119 modulators for the treatment of diabetes, obesity, dyslipidemia and related disorders” (SANOFI, priority 2014, dated 2018)
